# Measurements published in article PMC5620609 (Pharmaceuticals, 2017).
# Where two headings read alike, the source gives them in different places.
# Legend:
# SK-MEL-2 = assay: NCI 60 cell line panel: SK-MEL-2; type: cell-based, human; conditions: Melanoma, TP53 null/mutant
# Source text: (§1) Details of the NCI 60 One Dose Screen are well known and available online.
# OVCAR-3 = assay: NCI 60 cell line panel: OVCAR-3; type: cell-based, human; conditions: Ovarian cancer, TP53 null/mutant
# Source text: as §1
# KM12 = assay: NCI 60 cell line panel: KM12; type: cell-based, human; conditions: Colon cancer, TP53 null/mutant
# Source text: as §1
# HL-60 = assay: NCI 60 cell line panel: HL-60; type: cell-based, human; conditions: Leukemia, TP53 null/mutant
# Source text: as §1
# [1] = system: HL-60 human leukemia (TP53 null) xenograft; type: in vivo
# Procedure: (§2) Drugs were administered IV for 3 consecutive days a week for 3 weeks. HL-60 is a human leukemia cell line (TP53 null) that is part of the NCI 60 cell line panel and can be grown in nude mice.
# (§3) First, 10^7 tumor cells from culture in Matrigel™ of HL-60 human leukemia or LoVo colon cancer were implanted subcutaneously in the flank of 1.75-fold the number of NCr-nu/nu mice required for the study. Study initiation began when the required number of mice had tumors of approximately: • 100 to 250 mm^3 (target group mean tumor volume of approximately 175 mm^3) for the first set of studies. • 14 to 63 mm^3 (target group mean tumor weight of approximately 30 mm^3) for the second set of studies.
# (§4) Mice with tumors in the proper volume range were arbitrarily assigned to groups. Mice received test article on 3 consecutive days per week for 3 weeks. Mice were observed daily for mortality and moribundity with weights and the tumor measurements taken twice weekly. Tumor volume was determined using the formula for an ellipsoid sphere: Length × Width^2/2 = Volume (mm^3). The experiments were scheduled to last for 60 days from the day of tumor implant. Any animal whose weight decreased more than 30% from the weight on the first day of treatment or whose tumor reached 4000 mm^3 in volume, ulcerated or sloughed off, or was moribund was euthanized prior to study termination.
# [2] = system: LoVo colon cancer (TP53 WT) xenograft; type: in vivo
# Procedure: as §2, §3, §4
# DU-145 = assay: NCI 60 cell line panel: DU-145; type: cell-based, human; conditions: Prostate cancer, TP53 null/mutant
# Source text: as §1
# HCT-15 = assay: NCI 60 cell line panel: HCT-15; type: cell-based, human; conditions: Colon cancer, TP53 null/mutant
# Source text: as §1
# HS 578T = assay: NCI 60 cell line panel: HS 578T; type: cell-based, human; conditions: Breast cancer, TP53 null/mutant
# Source text: as §1
# LOX IMVI = assay: NCI 60 cell line panel: LOX IMVI; type: cell-based, human; conditions: Melanoma, TP53 wild type
# Source text: as §1
# THP-1 cells = assay: Morphology (Giemsa stain) of THP-1 cells; type: cell-based, human; conditions: 6 days following exposure
# [3] = system: TP53 WT colon cancer cell line Ls174T; assay: In vitro growth inhibition (CellTiter-Glo), Ls174T; type: cell-based; conditions: Homo sapiens, 72 h exposure
# Procedure: Further testing was performed in colon cancer cell lines.
# Cells were grown in an appropriate medium for the cell line of interest; 96 well plates of each cell line were seeded with 5000 cells per well and left overnight. Drug exposed cells were incubated at 37 °C for 72 h. At the end of the 72 h exposure period, plates were removed for the CellTiter-Glo® assay. Luminescence was recorded on a Synergy 4.0. Assays were performed in triplicate.
# MALME-3M = assay: NCI 60 cell line panel: MALME-3M; type: cell-based, human; conditions: Melanoma, TP53 wild type
# Source text: as §1
# BT-549 = assay: NCI 60 cell line panel: BT-549; type: cell-based, human; conditions: Breast cancer, TP53 null/mutant
# Source text: as §1
# OVCAR-8 = assay: NCI 60 cell line panel: OVCAR-8; type: cell-based, human; conditions: Ovarian cancer, TP53 null/mutant
# Source text: as §1
# MDA-MB-231 = assay: NCI 60 cell line panel: MDA-MB-231; type: cell-based, human; conditions: Breast cancer, TP53 null/mutant
# Source text: as §1
# HT29 = assay: NCI 60 cell line panel: HT29; type: cell-based, human; conditions: Colon cancer, TP53 null/mutant
# Source text: as §1
# HCT-116 = assay: NCI 60 cell line panel: HCT-116; type: cell-based, human; conditions: Colon cancer, TP53 wild type
# Source text: as §1
# [4] = Pharmacokinetic study, IV in mice; type: in vivo; conditions: 10 mg/kg; for half-life: iv
# Procedure: Blood aliquots (300–400 µL) were collected via cardiac puncture from anesthetized mice in anticoagulant coated tubes, then kept on ice and centrifuged at 2500× g for 15 min at 4 °C. The plasma was harvested and kept frozen at −80 °C. Plasma samples were processed using acetonitrile precipitation and analyzed by HPLC-MS/MS. A plasma calibration curve was generated and a reportable linear range determined, along with the lower limit of quantitation.
# SR = assay: NCI 60 cell line panel: SR; type: cell-based, human; conditions: Leukemia, TP53 wild type
# Source text: as §1
# MCF7 = assay: NCI 60 cell line panel: MCF7; type: cell-based, human; conditions: Breast cancer, TP53 wild type
# Source text: as §1
# SK-MEL-28 = assay: NCI 60 cell line panel: SK-MEL-28; type: cell-based, human; conditions: Melanoma, TP53 null/mutant
# Source text: as §1
# NCI-H522 = assay: NCI 60 cell line panel: NCI-H522; type: cell-based, human; conditions: NSCL, TP53 null/mutant
# Source text: as §1
# IGROV-1 = assay: NCI 60 cell line panel: IGROV-1; type: cell-based, human; conditions: Ovarian cancer, TP53 null/mutant
# Source text: as §1
# MDA-MB-435 = assay: NCI 60 cell line panel: MDA-MB-435; type: cell-based, human; conditions: Melanoma, TP53 null/mutant
# Source text: as §1
# SK-MEL-5 = assay: NCI 60 cell line panel: SK-MEL-5; type: cell-based, human; conditions: Melanoma, TP53 wild type
# Source text: as §1
# NCI-H460 = assay: NCI 60 cell line panel: NCI-H460; type: cell-based, human; conditions: NSCL, TP53 wild type
# Source text: as §1
# EKVX = assay: NCI 60 cell line panel: EKVX; type: cell-based, human; conditions: NSCL, TP53 null/mutant
# Source text: as §1
# SN12C = assay: NCI 60 cell line panel: SN12C; type: cell-based, human; conditions: Renal cancer, TP53 null/mutant
# Source text: as §1
# SF-539 = assay: NCI 60 cell line panel: SF-539; type: cell-based, human; conditions: CNS cancer, TP53 null/mutant
# Source text: as §1
compound,measurement,setting,value
"Nc1ncn([C@@H]2O[C@H](CO)[C@@H](O)C2(F)F)c(=O)n1 [NUC013, 5-aza-2′,2′-difluroro deoxycytidine]",Growth (%) at 10 µM,SK-MEL-2,104.47%
same,Growth (%) at 10 µM,OVCAR-3,70.56%
same,Growth (%) at 10 µM,KM12,61.18%
same,Growth (%) at 10 µM,HL-60,25.23%
same,median survival (MS),"[1]; HL-60 first study, NUC013 5.8 mg/kg IV, saline MS = 25 days",28.5 days
same,mice died or euthanized for moribundity (out of 10),"[1]; HL-60 first study, NUC013 equimolar dose (5.8 mg/kg) IV",none
same,median survival (MS),"[1]; HL-60 second study, NUC013 20 mg/kg IV, saline MS = 26.5 days",32 days
same,tumor volume lower than saline control (maximum),"[1]; HL-60 second study, NUC013 20 mg/kg IV, study days 21 and 25",47.8%
same,median survival (MS),"[2]; LoVo first study, NUC013 5.8 mg/kg IV",60 days
same,mean tumor volume lower compared to controls,"[2]; LoVo first study, NUC013 equimolar dose (5.8 mg/kg) IV, study day 27",24.3%
same,median survival (MS),"[2]; LoVo second study, NUC013 20 mg/kg IV",undefined
same,mean tumor volume lower compared to controls,"[2]; LoVo second study, NUC013 20 mg/kg IV, study day 30",50.9%
same,median survival (MS),"[2]; LoVo second study, NUC013 40 mg/kg IV",undefined
same,mean tumor volume lower compared to controls,"[2]; LoVo second study, NUC013 40 mg/kg IV, study day 30",53.7%
same,Growth (%) at 10 µM,DU-145,43.48%
same,Growth (%) at 10 µM,HCT-15,52.19%
same,Growth (%) at 10 µM,HS 578T,90.37%
same,Growth (%) at 10 µM,LOX IMVI,34.53%
same,morphologic changes,THP-1 cells,morphologic changes suggestive of cell differentiation
same,GI50,[3],1300 nM
same,Growth (%) at 10 µM,MALME-3M,67.90%
same,Growth (%) at 10 µM,BT-549,53.63%
same,Growth (%) at 10 µM,OVCAR-8,49.95%
same,Growth (%) at 10 µM,MDA-MB-231,79.98%
same,Growth (%) at 10 µM,HT29,70.09%
same,Growth (%) at 10 µM,HCT-116,29.84%
same,identification in plasma at the 6 and 24 h timepoints,"[4]; mice, IV",could not be identified
same,half-life,"[4]; mouse, plasma, mice, intravenous injection, read-out: half-life",20.1 min
same,half-life,"[4]; mouse, plasma, mouse, IV, plasma, non-compartmental, read-out: t1/2 (converted)",20.1 min
same,AUC Extr,"[4]; mouse, IV, plasma",0.04%
same,AUC(0-inf),"[4]; mouse, IV, plasma",11100 ng·h/mL
same,AUC(0-t),"[4]; mouse, IV, plasma",11100 ng·h/mL
same,C0,"[4]; mouse, IV, plasma",36900 ng/mL
same,Last time point for AUClast,"[4]; mouse, IV, plasma",4 h
same,MRT,"[4]; mouse, IV, plasma",17.5 min
same,Vd,"[4]; mouse, IV, plasma, read-out: Vss",0.26 L/kg
same,Growth (%) at 10 µM,SR,14.99%
same,Growth (%) at 10 µM,MCF7,20.74%
same,Growth (%) at 10 µM,SK-MEL-28,78.46%
same,Growth (%) at 10 µM,NCI-H522,86.91%
same,Growth (%) at 10 µM,IGROV-1,56.77%
same,Growth (%) at 10 µM,MDA-MB-435,53.04%
same,Growth (%) at 10 µM,SK-MEL-5,70.84%
same,Growth (%) at 10 µM,NCI-H460,9.34%
same,Growth (%) at 10 µM,EKVX,86.06%
same,Growth (%) at 10 µM,SN12C,51.65%
same,Growth (%) at 10 µM,SF-539,22.25%
